In article PMC5923171, “Novel Zinc-Attenuating Compounds as Potent Broad-Spectrum Antifungal Agents with In Vitro and In Vivo Efficacy” (Antimicrobial Agents and Chemotherapy, 2018):
Read-outs that look alike come from different tables or passages of the source. Each block holds one molecule with its values, some of them ahead of it.

Tests used:
[1] = cited from earlier work
C. albicans = test: Resistance study (repeated exposure); assay type: cell-based, Candida albicans; details: SDwoz medium, 36-day period, 22 passages
Description: The propensity for resistance development was investigated as also described previously ([41]), but with the following modifications. […] Over a 36-day period, culture aliquots of 100 μl were periodically (every 1 to 2 days) transferred (passaged) to new culture tubes with 900 μl of fresh medium and fresh compound. […] Cells were passaged a total of 22 times, and cultures were periodically tested for antifungal susceptibility by following the protocol for antifungal susceptibility testing, as described above.

Candida albicans SC5314 = test: In vivo fungal kidney burden candidiasis model; parameters: species or system BALB/c mice; details: fluconazole 3 mg/kg p.o.
Description: A murine model of systemic candidiasis was established according to a previously described method ([44]). BALB/c mice were infected with a 0.1-ml inoculum (1 × 10^5 to 5 × 10^5 CFU) of Candida albicans SC5314 cells by the intravenous route on day 0. Compounds were tested at doses of 60 mg/kg. Administration of compound was initiated 24 h prior (day −1) to infection (day 0) by the intraperitoneal route, dosing twice a day for 4 days (day −1 to day 2). ZAC307 was also evaluated with administration of the compounds given after the infection at day 0 (no pretreatment) and following dosing twice a day for 3 days (days 0 to 2). Fluconazole was used as a comparator drug. Six mice were used for each group, and the untreated control group was exposed to the vehicle alone. ZAC989 and ZAC307 were formulated by taking 60 mg of compound and adding this to 2 ml and 4 ml of 0.1 N NaOH, respectively. After mixing and sonication of the resulting solutions, 4 ml of purified water was added. The pH was adjusted to 9.0 with 0.1 N HCl solution, followed by the addition of 90 mg of NaCl. The solutions were then diluted to 10 ml and filtered through a 0.22-μm polyvinylidene difluoride (PVDF) filter. Sample collection and processing were performed as follows. Twelve hours after the last dose, all treated and untreated animals were sacrificed by cervical dislocation and kidneys were collected in 3 ml of sterile normal saline. The samples were homogenized, serially diluted, and plated on Sabouraud dextrose agar (SDA). SDA plates were incubated for 24 to 48 h at 35°C, and CFU were enumerated and reported as log CFU/kidney. The endpoint was mean log CFU of fungi in kidneys of treated animals compared to that of untreated animals. The study was conducted in conformance with an application submitted to the Committee for the Purpose of Control and Supervision of Experiments on Animals (CPCSEA), New Delhi, India, after approval from the Institutional Animal Ethics Committee (IAEC).

C. albicans SC5314 [2] = test: Time-kill assay; assay type: cell-based, Candida albicans; details: 0.5 μg/ml AMB, 3.6 μg/ml ZAC989, 4.4 μg/ml EDTA, 4.2 μg/ml TPEN; up to 24 h
Description: C. albicans SC5314 cells (10^5 CFU/ml) were incubated in 10 ml of RPMI medium at 30°C with gentle agitation (150 rpm) in the presence of EDTA (15 μM), TPEN (10 μM), ZAC989 (10 μM), or AMB (0.5 μM). At the desired time points (0, 3, 5.5, and 24 h), a 100-μl aliquot was removed for each test condition and serially diluted (10-fold) in saline (0.9% NaCl), and 30 μl of each dilution was plated on YPD agar plates. The colony count on each YPD plate was determined after incubation at 30°C for 48 h ([40]). C. albicans cells treated with DMSO (1%, vol/vol) served as a control.

A. fumigatus = tested on: A. fumigatus; parameters: method as in PMID 27401578; details: monotherapy; cited from earlier work
[3] = Fluorescence-based competition assay using FluoZin-3 (compound-Zn2+ dissociation constant); assay type: binding; details: FluoZin-3 competition, PBS pH 7.4, room temperature; read-out: Compound-Zn^2+ KD
Description: The dissociation constant (Kd) of zinc to zinc-attenuating compounds was determined at room temperature using FluoZin-3 (F24194; […] Testing buffer consisted of PBS (pH 7.4) with 200 nM ZnCl2 and 500 nM FluoZin-3. In a microtiter plate, 98 μl of testing buffer was mixed with 2 μl of compound at a range of concentrations to determine the half-maximal inhibitory concentration (IC50). Testing plates were incubated for 2 min before being read at an excitation wavelength of 485 nm and an emission wavelength of 516 nm with a Fluoroskan Ascent microplate fluorometer (Thermo Fisher Scientific).

C. albicans SC5314 [4] = test: Antifungal susceptibility testing (MIC); assay type: cell-based, Candida albicans
Description: (§1) Antifungal susceptibility testing was carried out as described previously ([38], [39]), with a few modifications. Briefly, for each yeast or mold growth inhibition assay, frozen stocks of yeast cells or spores were diluted to a final concentration of 0.5 × 10^5 to 2.5 × 10^5 CFU/ml in sterile water. ZAC989, ZAC307, and ZAC623 were dissolved in DMSO to 10 mM stocks from which half-log serial dilutions were prepared. Growth assays were subsequently performed by pipetting 3 μl of compound dissolved in DMSO (giving a final concentration of 1.5% DMSO), 100 μl of cell-spore suspension, and 97 μl of 2× RPMI medium (20.8 g/liter of RPMI 1640 medium, 69.06 g/liter of morpholinepropanesulfonic acid [MOPS], 36 g/liter of glucose) into a microtiter plate that was incubated for 24 h (yeasts) or 48 to 72 h (molds) at 34°C. Fungal growth was determined spectrophotometrically by optical density reading of each well at a wavelength of 492 nm on a Victor X5 (Perkin-Elmer) plate reader. […] Standard errors between repeated experiments were generally below 5%. The growth effect of exogenous addition of various divalent metals was evaluated by performing the antifungal susceptibility assay in the presence of 5 μM ZAC989 or ZAC307 and with increasing concentrations (0.003 to 50 μM) of ZnSO4, CuSO4, (NH4)2Fe(SO4)2, MgCl2, and CaCl2.

[5] = tested on: C. parapsilosis ATCC 22019; test: Antifungal susceptibility testing (MIC); assay type: cell-based, Candida parapsilosis; details: Lodderomyces parapsilosis, ATCC22019; at least 50% growth inhibition, RPMI, 24 h, 34°C
Description: as §1

C. krusei ATCC 6258 = test: Antifungal susceptibility testing (MIC); assay type: cell-based, Candida krusei; details: Pichia kudriavzevii, ATCC6258; at least 50% growth inhibition, RPMI, 24 h, 34°C
Description: as §1

Structure (SMILES): COc1ccc(N(CC(=O)O)CC(=O)O)c(OCCOc2cc(-c3c4cc(F)c(=O)cc-4oc4cc(O)c(F)cc34)ccc2NCC(=O)O)c1 [FluoZin-3]
Kd ([1]; read-out: Kd (FluoZin-3–Zn^2+)): 15 nM

Structure (SMILES): OC(Cn1cncn1)(Cn1cncn1)c1ccc(F)cc1F [Fluconazole, fluconazole, reference compound]
change in the MIC after repeated exposure (C. albicans): significant increase in the MIC | Mean log CFU/kidney (Candida albicans SC5314): 3.02 ± 0.22 log CFU/kidney | Mean log CFU/kidney reduction (Candida albicans SC5314; vs untreated control): 2.78 log CFU/kidney

Structure (SMILES): C[C@@H]1[C@H](O)[C@@H](C)/C=C/C=C/C=C/C=C/C=C/C=C/C=C/[C@H](O[C@@H]2O[C@H](C)[C@@H](O)[C@H](N)[C@@H]2O)C[C@@H]2O[C@](O)(C[C@@H](O)C[C@@H](O)[C@H](O)CC[C@@H](O)C[C@@H](O)CC(=O)O[C@H]1C)C[C@H](O)[C@H]2C(=O)O [amphotericin B]
time-kill activity (fungistatic or fungicidal) (C. albicans SC5314 [2]): fungicidal activity after 3 h of exposure

Structure (SMILES): COc1cc(O)c(-c2nc3c(CNCc4ccccn4)cccc3o2)cc1OC [Zinbo-5]
Kd ([1]; read-out: affinity constant for zinc): 2.2 nM

Structure (SMILES): c1cnc2c(c1)ccc1cccnc12 [phenanthroline]
survival and fungal burden (A. fumigatus): significant improvements in survival with concomitant reduction in fungal burden

Kd [3]: > 6 µM | MIC (C. albicans SC5314 [4]; Candida albicans, SC5314, 24 h, at least 50% growth inhibition, RPMI, 24 h, 34°C, read-out: MIC): > 54 µg/mL | MIC [5]: > 54 µg/mL | MIC (C. krusei ATCC 6258): > 54 µg/mL
Structure (SMILES): Cc1cc(N)n(-c2cc(N3CC[C@H](Oc4cnccc4C#N)C3)ncn2)n1 [ZAC623, 3-[(3S)-1-[6-(5-amino-3-methyl-pyrazol-1-yl)pyrimidin-4-yl]pyrrolidin-3-yl]oxypyri-dine-4-carbonitrile]
growth-inhibitory activity (in words) (C. albicans SC5314 [4]): did not display growth-inhibitory activity
